Usually inhibition stands for the relative decrease from the control value, in per cent.

2 compounds from patent US20190119284A1, “ErbB Inhibitors and Uses Thereof” (The Regents of the University of California, priority 2016, published 2019) can be followed below.

The target of one assay is TRKC (Homo sapiens, UniProt Q16288). The assay is described as follows: Nanosyn in vitro kinase profiling: TRKC. The format is biochemical. As for the experimental part:
(§1) This was confirmed by in vitro profiling against a panel of kinases, with compound 2 only showing potent inhibition of EGFR and Ab1 (Table 2).
(§2) In vitro Kinome Screen. In vitro profiling of compound 2 at 100 nM was conducted by Nanosyn.

The target of a further assay is DYRK1B (Homo sapiens, UniProt Q9Y463). As to the kind of experiment: Nanosyn in vitro kinase profiling: DYRK1B. The format is biochemical. As for the experimental part: as §1, §2
Sequence of DYRK1B (Q9Y463 whole entry, species assumed): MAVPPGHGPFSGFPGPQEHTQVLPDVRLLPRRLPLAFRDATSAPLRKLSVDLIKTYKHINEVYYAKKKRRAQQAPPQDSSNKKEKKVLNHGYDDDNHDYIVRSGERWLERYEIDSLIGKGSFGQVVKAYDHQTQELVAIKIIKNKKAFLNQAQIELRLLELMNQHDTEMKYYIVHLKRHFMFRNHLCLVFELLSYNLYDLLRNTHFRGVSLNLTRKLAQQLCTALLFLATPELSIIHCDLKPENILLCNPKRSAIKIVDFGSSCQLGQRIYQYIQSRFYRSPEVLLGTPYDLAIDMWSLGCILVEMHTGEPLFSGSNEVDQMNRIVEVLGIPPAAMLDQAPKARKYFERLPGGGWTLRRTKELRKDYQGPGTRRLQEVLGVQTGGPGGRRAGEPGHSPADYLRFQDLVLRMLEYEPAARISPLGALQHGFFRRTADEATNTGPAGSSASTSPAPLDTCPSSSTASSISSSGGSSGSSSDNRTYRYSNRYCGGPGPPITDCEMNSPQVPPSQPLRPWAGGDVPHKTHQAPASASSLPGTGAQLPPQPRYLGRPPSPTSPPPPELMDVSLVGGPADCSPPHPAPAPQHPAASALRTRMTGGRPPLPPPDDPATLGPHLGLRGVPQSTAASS
The target of a further assay is JAK3 (Homo sapiens, UniProt P52333). The assay is described as follows: Nanosyn in vitro kinase profiling: JAK3. The format is biochemical. As for the experimental part: as §1, §2
Sequence of JAK3 (P52333 whole entry): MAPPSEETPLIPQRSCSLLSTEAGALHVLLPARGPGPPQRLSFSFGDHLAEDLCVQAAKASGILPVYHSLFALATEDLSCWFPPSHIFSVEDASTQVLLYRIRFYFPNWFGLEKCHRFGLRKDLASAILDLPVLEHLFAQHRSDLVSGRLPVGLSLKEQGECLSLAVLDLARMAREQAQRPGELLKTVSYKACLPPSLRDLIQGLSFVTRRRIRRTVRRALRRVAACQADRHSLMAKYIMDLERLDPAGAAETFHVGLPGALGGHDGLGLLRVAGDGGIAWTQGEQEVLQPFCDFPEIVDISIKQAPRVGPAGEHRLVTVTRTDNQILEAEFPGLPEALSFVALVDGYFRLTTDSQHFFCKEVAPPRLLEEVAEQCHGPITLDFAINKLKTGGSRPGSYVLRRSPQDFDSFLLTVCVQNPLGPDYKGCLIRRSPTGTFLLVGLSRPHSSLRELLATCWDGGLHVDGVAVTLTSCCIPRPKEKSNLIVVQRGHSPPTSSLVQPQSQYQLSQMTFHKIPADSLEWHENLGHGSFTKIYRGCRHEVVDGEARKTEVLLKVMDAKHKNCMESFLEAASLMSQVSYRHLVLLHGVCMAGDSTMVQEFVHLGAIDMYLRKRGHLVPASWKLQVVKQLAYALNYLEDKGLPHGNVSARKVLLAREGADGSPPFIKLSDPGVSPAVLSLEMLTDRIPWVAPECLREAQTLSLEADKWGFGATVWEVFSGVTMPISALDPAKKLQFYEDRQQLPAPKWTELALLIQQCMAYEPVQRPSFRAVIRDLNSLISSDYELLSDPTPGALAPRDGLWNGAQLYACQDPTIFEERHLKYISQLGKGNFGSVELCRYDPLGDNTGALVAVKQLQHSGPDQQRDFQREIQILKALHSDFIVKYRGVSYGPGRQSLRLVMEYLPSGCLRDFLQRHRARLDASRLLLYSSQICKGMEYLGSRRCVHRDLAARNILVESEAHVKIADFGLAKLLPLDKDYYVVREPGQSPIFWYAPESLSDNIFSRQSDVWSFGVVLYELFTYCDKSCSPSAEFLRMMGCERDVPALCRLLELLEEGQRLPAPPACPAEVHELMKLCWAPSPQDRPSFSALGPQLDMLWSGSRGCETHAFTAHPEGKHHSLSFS
The next assay concerns the target EPH-B4 (Homo sapiens, UniProt P54760). As to the kind of experiment: Nanosyn in vitro kinase profiling: EPH-B4. The assay is classed as biochemical. As for the experimental part:
as §1, §2

A further assay deals with P70S6K1 (Homo sapiens, UniProt P23443). As to the kind of experiment: Nanosyn in vitro kinase profiling: P70S6K1. The format is biochemical. As for the experimental part: as §1, §2
Sequence of P70S6K1 (P23443 whole entry, species assumed): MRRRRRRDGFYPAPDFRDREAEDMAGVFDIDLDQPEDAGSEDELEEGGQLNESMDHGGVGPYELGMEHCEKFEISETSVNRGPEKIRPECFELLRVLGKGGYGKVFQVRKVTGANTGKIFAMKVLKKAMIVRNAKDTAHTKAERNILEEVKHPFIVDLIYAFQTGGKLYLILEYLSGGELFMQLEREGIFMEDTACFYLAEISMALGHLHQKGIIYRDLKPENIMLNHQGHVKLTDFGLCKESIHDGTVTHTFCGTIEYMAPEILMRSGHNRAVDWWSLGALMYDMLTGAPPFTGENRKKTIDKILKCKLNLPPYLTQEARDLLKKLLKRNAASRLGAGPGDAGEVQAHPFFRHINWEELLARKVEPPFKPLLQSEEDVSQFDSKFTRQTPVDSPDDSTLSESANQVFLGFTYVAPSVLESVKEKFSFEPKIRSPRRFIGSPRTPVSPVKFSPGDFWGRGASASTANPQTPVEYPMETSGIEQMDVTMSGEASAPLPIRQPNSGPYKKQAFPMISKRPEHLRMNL
A further assay concerns the target ALK (Homo sapiens, UniProt Q9UM73). The assay is described as follows: Nanosyn in vitro kinase profiling: ALK. The assay is classed as biochemical. As for the experimental part: as §1, §2
The next assay has as its target TSSK1 (Homo sapiens, UniProt Q9BXA7). The assay is described as follows: Nanosyn in vitro kinase profiling: TSSK1. The format is biochemical. As for the experimental part:
as §1, §2

Another assay concerns the target BLK (Homo sapiens, UniProt P51451). As to the kind of experiment: Nanosyn in vitro kinase profiling: BLK. The format is biochemical. As for the experimental part:
as §1, §2

Another assay relates to NCI-H1781 cells. As to the kind of experiment: 72 h proliferation of NCI-H1781 cells. The assay is classed as cell-based. The settings on record: NCI-H1781, 72 h.
In the next assay the target is MST2 (Homo sapiens, UniProt Q13188). As to the kind of experiment: Nanosyn in vitro kinase profiling: MST2. The format is biochemical. The settings on record: compound at 1 μM.
The next assay addresses MEK2 (Homo sapiens, UniProt P36507). As to the kind of experiment: Nanosyn in vitro kinase profiling: MEK2. The format is biochemical. Particulars: compound at 1 μM.
The target in the next assay is T1, wt EGFR (Homo sapiens, UniProt P00533).
T1 construct: leaving the same phosphosites on wt EGFR relatively unaffected up to 1 μM; endogenous in cells
The assay is described as follows: phosphosite signaling on wt EGFR. The assay is classed as cell-based.

The target in assay [1] is T2, 2YF-L755S/3wt + NRG Ba/F3 cells (Homo sapiens, UniProt P04626, L755S/Y1005F/Y1023F/Y1112F/Y1127F/Y1139F/Y1196F/Y1221F/Y1222F/Y1248F, cells depend on it).
T2 construct: reported HER2 oncogenic mutants in the HER2YF construct
As to the kind of experiment: Ba/F3 proliferation assay, 2YF-L755S/3wt + NRG. The format is cell-based. Particulars: Table 4; ± S.D., n = 2; read-out: IC50, 2YF-L755S/3wt + NRG. As for the experimental part:
For the 2YF/3wt cells, the parental cells were first transduced with HER3 according to the protocol above and were then spun down at 500×g for 5 min and re-suspended in media supplemented with 10 ng/mL IL-3 and 3 μg/mL puromycin (Invitrogen). Cells were maintained in these conditions for seven days, passaging as required. After seven days the cells were spun down, washed with fresh media, and then used for a subsequent round of transduction according to the protocol above with HER2YF virus. […] The cells were maintained in these conditions for seven days, passaging as required. After seven days the cells were spun down, washed with fresh media, and then suspended in media supplemented with 10 ng/mL of NRG. Cells were maintained in these conditions for seven days to select for a NRG dependent population of 2YF/3wt Ba/F3 cells that were then maintained as described above. The same protocol was used for the 2YF-L755S/3wt, 2YF-YVMA/3wt, and 2YF-VC/3wt cell lines using the indicated constructs.
Proliferation Assays. […] The following day media was changed to fresh media that contained either DMSO or the indicated concentration of drug plus NRG (50 ng/mL final concentration) as indicated. […] For all normalized assays, proliferation was normalized to the DMSO control condition. […]

Assay [2] concerns HER2 overexpressing cell lines (BT-474, SK-BR-3). As to the kind of experiment: cell death with CellTox green (Incucyte Zoom), 72 h +/- NRG. The format is cell-based. The settings on record: BT-474 and SK-BR-3, 72 h +/- NRG. As for the experimental part:
FIGS. 15A-15C. NRG rescues HER2 overexpressing cell lines from type 1.5 inhibitors but not compound 3. FIG. 15A. BT-474 cells were treated with the indicated concentrations of drugs in the presence or absence of NRG for 72 h. Cell death was determined using CellTox green with the Incucyte Zoom data are represented as mean values±SD (n=3). FIG. 15B. Same experiment as in FIG. 15A, but with SK-BR-3 cells. c. Cells were treated with 1 μM of the indicated inhibitor in the presence of varying concentrations of NRG. The lapatininb data is reproduced from FIG. 1C (mean value±SD, n=3).

The target of a further assay is FAK (Homo sapiens, UniProt Q05397). As to the kind of experiment: Nanosyn in vitro kinase profiling: FAK. The format is biochemical. The settings on record: compound at 1 μM.
For assay [3], the system named is HER2/HER3 signaling in CHL-1 cells. As to the kind of experiment: HER2/HER3 signaling in CHL-1 cells. Particulars: compared with lapatinib. The assay is classed as cell-based.
The next assay addresses JAK2 (Homo sapiens, UniProt O60674). The assay is described as follows: Nanosyn in vitro kinase profiling: JAK2. Particulars: compound at 1 μM. The format is biochemical.

Sequence of EPH-B4 (P54760 16-987, species assumed): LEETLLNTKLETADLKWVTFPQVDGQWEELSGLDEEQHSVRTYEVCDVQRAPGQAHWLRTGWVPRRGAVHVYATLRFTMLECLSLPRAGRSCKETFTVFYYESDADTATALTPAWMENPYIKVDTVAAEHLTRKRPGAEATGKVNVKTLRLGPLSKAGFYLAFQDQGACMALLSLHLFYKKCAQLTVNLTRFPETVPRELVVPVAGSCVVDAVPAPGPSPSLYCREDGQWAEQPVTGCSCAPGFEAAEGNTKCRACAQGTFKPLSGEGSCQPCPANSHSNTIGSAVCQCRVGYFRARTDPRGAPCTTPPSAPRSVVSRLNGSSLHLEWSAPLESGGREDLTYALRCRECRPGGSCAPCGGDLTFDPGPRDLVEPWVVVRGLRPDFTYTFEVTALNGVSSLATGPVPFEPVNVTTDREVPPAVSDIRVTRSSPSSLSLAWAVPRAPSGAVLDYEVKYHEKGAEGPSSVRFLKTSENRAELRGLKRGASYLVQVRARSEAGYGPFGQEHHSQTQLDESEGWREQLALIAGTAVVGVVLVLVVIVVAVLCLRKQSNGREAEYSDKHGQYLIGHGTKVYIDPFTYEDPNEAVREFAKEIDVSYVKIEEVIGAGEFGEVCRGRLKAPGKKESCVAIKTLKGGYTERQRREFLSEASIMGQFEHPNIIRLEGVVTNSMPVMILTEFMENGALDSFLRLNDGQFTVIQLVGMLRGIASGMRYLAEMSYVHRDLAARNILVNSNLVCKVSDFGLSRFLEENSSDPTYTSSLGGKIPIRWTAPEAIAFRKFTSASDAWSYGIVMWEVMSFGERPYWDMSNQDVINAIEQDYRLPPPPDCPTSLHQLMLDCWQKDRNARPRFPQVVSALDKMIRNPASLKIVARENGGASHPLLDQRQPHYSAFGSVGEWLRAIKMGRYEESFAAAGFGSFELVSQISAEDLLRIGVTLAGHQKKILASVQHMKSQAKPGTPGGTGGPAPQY
Sequence of BLK (P51451 whole entry): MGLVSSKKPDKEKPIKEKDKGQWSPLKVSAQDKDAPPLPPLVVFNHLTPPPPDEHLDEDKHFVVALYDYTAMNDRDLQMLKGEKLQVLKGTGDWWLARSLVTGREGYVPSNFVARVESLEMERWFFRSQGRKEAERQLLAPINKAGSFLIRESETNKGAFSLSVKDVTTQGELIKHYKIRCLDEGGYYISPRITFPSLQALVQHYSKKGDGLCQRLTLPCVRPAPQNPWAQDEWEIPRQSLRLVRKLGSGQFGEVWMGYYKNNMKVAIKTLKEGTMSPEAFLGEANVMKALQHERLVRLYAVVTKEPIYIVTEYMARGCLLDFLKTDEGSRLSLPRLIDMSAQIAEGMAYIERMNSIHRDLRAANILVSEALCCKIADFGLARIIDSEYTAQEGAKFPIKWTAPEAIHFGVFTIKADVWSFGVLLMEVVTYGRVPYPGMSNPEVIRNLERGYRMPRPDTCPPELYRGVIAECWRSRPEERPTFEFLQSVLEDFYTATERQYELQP
Sequence of TSSK1 (Q9BXA7 whole entry, species assumed): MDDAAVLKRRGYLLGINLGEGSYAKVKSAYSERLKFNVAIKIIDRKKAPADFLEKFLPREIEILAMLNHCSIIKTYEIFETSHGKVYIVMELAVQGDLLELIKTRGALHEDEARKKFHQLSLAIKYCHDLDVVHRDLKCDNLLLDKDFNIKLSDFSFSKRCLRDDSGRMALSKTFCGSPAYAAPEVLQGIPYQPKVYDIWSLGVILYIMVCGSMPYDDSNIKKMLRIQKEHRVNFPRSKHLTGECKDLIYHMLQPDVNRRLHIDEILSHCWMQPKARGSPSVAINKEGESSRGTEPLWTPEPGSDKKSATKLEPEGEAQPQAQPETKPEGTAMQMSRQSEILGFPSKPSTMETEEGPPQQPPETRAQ
Sequence of TRKC (Q16288 32-839): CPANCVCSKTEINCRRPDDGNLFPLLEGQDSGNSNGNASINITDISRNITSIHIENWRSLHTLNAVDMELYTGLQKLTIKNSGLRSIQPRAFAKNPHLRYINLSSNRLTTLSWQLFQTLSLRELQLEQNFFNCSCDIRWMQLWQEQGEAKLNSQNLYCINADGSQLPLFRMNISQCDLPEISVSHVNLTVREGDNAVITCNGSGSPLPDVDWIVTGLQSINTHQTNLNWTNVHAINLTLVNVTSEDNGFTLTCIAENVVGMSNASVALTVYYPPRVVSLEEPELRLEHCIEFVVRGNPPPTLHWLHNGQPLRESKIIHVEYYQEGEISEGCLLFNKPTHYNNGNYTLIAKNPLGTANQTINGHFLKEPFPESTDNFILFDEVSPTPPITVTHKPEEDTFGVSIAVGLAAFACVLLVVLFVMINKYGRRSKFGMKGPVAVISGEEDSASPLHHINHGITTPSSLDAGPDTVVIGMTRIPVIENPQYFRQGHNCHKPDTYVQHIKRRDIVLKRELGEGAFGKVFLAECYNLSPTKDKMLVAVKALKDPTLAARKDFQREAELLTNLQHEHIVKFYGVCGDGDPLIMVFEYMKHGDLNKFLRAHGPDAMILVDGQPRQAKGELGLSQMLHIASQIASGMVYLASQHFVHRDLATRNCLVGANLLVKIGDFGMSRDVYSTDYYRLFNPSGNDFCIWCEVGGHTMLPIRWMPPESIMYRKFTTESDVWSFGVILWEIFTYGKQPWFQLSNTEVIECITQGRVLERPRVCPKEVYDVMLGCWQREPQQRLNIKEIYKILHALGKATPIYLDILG

As to `COc1ccc(-c2ccco2)cc1Nc1ncnc2[nH]nc(-c3ccco3)c12` [compound 2, 3-(furan-2-yl)-N-(5-(furan-2-yl)-2-methoxyphenyl)-1H-pyrazolo[3,4-d]pyrimidin-4-amine], the inhibition at 0.1 µM was 15.7% against TRKC (compound at 100 nM); 4.01% against DYRK1B (compound at 100 nM); 20.4% on JAK3 (compound at 100 nM); 3.44% against EPH-B4 (compound at 100 nM); 8.88% against P70S6K1 (compound at 100 nM); 6.14% against ALK (compound at 100 nM). Moreover, the inhibition at 0.1 µM stood at 0.665% on TSSK1 (compound at 100 nM) and 59.9% on BLK (compound at 100 nM). In addition, the inhibition at 1 µM on TRKC (compound at 1 μM) turned out to be 46.9%; on DYRK1B (compound at 1 μM), 22.6%; at JAK3 (compound at 1 μM), 69.4%; against EPH-B4 (compound at 1 μM), 21.7%; against P70S6K1 (compound at 1 μM) it was 38.4%; against ALK (compound at 1 μM), 19.8%. For the same compound, the inhibition at 1 µM is -3.06% at TSSK1 (compound at 1 μM) and 90.4% on BLK (compound at 1 μM).
For `COc1ccc(-c2ccoc2)cc1Nc1ncnc2[nH]cc(-c3cc[nH]n3)c12` [compound 3, N-(5-(furan-3-yl)-2-methoxyphenyl)-5-(1H-pyrazol-3-yl)-7H-pyrrolo[2,3-d]pyrimidin-4-amine], the “sensitivity of cell proliferation” value in the assay on NCI-H1781 cells is recorded as “sensitive”. For the same compound, the inhibition at 1 µM at MST2 was 84%; at MEK2, 70%; on FAK, -10%; against JAK2, 83%. Besides, the “same phosphosites on wt EGFR relatively unaffected up to” value on wt EGFR was more than 1 µM. Moreover, in assay [1], the GI50 amounted to 38.2 ± 2.9 nM. Also, the “rescue by NRG” value in assay [2] is on record as “not”. Moreover, the “inhibition of feedback activated HER2/HER3 signaling” value in [3] (CHL-1, after 24 h DMSO or 500 nM lapatinib, then 24 h dose response) is recorded as “better able to inhibit feedback activated HER2/HER3 signaling”. In [3] (CHL-1, dose response 24 h), the “inhibition of p-HER3 and PI3K/Akt pathway” value was “better able to inhibit p-HER3 and thus the PI3K/Akt pathway”.
